According to the supplement of paper PMC13380429:
± gives the standard deviation of the averaged measurements.

Legend:
Details in all cases: 72 h
Caco-2 [1] = experiment: relative viability EC50 (midpoint between 100% and the lowest measured viability); higher = less toxic
Vero E6 [2] = experiment: as above
HepG2 [3] = experiment: as above
U2OS [4] = experiment: as above
Calu-3 [5] = experiment: as above
Caco-2 [6] = experiment: drug sensitivity score (DSS) for viability; higher = more toxic; extreme values may be limits of the assay
Vero E6 [7] = experiment: as above
HepG2 [8] = experiment: as above
U2OS [9] = experiment: as above
Calu-3 [10] = experiment: as above
Caco-2 [11] = experiment: cell viability relative to DMSO; higher = less toxic
Vero E6 [12] = experiment: as above
HepG2 [13] = experiment: as above
U2OS [14] = experiment: as above
Calu-3 [15] = experiment: as above

Row | SMILES | relative viability EC50 (Caco-2 [1]) | relative viability EC50 (Vero E6 [2]) | relative viability EC50 (HepG2 [3]) | relative viability EC50 (U2OS [4]) | relative viability EC50 (Calu-3 [5]) | drug sensitivity score (Caco-2 [6]) | drug sensitivity score (Vero E6 [7]) | drug sensitivity score (HepG2 [8]) | drug sensitivity score (U2OS [9]) | drug sensitivity score (Calu-3 [10]) | cell viability (Caco-2 [11]; 1 nM) | cell viability (Caco-2 [11]; 10 nM) | cell viability (Caco-2 [11]; 100 nM) | cell viability (Caco-2 [11]; 1000 nM) | cell viability (Caco-2 [11]; 10000 nM) | cell viability (Vero E6 [12]; 1 nM) | cell viability (Vero E6 [12]; 10 nM) | cell viability (Vero E6 [12]; 100 nM) | cell viability (Vero E6 [12]; 1000 nM) | cell viability (Vero E6 [12]; 10000 nM) | cell viability (HepG2 [13]; 1 nM) | cell viability (HepG2 [13]; 10 nM) | cell viability (HepG2 [13]; 100 nM) | cell viability (HepG2 [13]; 1000 nM) | cell viability (HepG2 [13]; 10000 nM) | cell viability (U2OS [14]; 1 nM) | cell viability (U2OS [14]; 10 nM) | cell viability (U2OS [14]; 100 nM) | cell viability (U2OS [14]; 1000 nM) | cell viability (U2OS [14]; 10000 nM) | cell viability (Calu-3 [15]; 1 nM) | cell viability (Calu-3 [15]; 10 nM) | cell viability (Calu-3 [15]; 100 nM) | cell viability (Calu-3 [15]; 1000 nM) | cell viability (Calu-3 [15]; 10000 nM)
1 | Cn1cc(C(=O)OCC2CCN(CCNS(C)(=O)=O)CC2)c2ccccc21 | > 10 µM | > 10 µM | > 10 µM | > 10 µM | > 10 µM | 0 | 0 | 0 | 0 | 0 | 99% | 95.8% | 85.9% | 93.3% | 96.8% | 101% | 96.8% | 100% | 95.1% | 96.5% | 96.1% | 96.3% | 93.9% | 93.3% | 91.3% | 99.7% | 101% | 96.8% | 98.8% | 95.3% | 86% | 109% | 100% | 103% | 108%
2 | N=C(N)c1ccc(N2CCN(C3CCN(CC(=O)O)CC3)CC2)cc1 | > 10 µM | > 10 µM | > 10 µM | > 10 µM | > 10 µM | 0 | 0 | 0 | 0 | 0 | 83% | 97.2% | 89.2% | 92.5% | 104% | 97.9% | 98.6% | 99.2% | 93.5% | 96.9% | 111% | 96.8% | 101% | 107% | 102% | 97.6% | 103% | 95.6% | 96.9% | 102% | 91.4% | 96.4% | 90% | 92% | 100%
3 | Nc1n[nH]c2nnc(-c3c(-c4ccccc4)nn4ccccc34)cc12 | > 10 µM | > 10 µM | > 10 µM | > 10 µM | > 10 µM | 0.2 | 0.2 | 0 | 0 | 0 | 95.7% | 107% | 90.4% | 97.1% | 84.3% | 105% | 93.6% | 97% | 94.8% | 84.5% | 102% | 95.2% | 103% | 97.9% | 91.8% | 98.2% | 102% | 94.9% | 102% | 89.1% | 98.9% | 102% | 99.8% | 90% | 95%
4 | O=C(O)COc1cccc(-c2ocnc2-c2nc(-c3ccccc3)c(-c3ccccc3)o2)c1 | > 10 µM | > 10 µM | > 10 µM | > 10 µM | > 10 µM | 0.7 | 0 | 0 | 0 | 0 | 109% | 101% | 95.5% | 94.4% | 81.8% | 99% | 104% | 102% | 104% | 101% | 105% | 102% | 93.6% | 95% | 105% | 102% | 97.7% | 97.5% | 102% | 101% | 92.9% | 95.8% | 95% | 100% | 105%
5 | O=c1cc(N2CCNCC2)oc2c(-c3ccccc3)cccc12 | > 10 µM | > 10 µM | > 10 µM | > 10 µM | > 10 µM | 0 | 0 | 0 | 0 | 0 | 93.3% | 88.9% | 89.2% | 93.9% | 106% | 100% | 96.4% | 104% | 93.1% | 103% | 105% | 100% | 98.2% | 101% | 102% | 96.6% | 100% | 96.8% | 102% | 101% | 109% | 98.4% | 108% | 106% | 117%
6 | C[C@@H](C1=C(CCN(C)C)Cc2ccccc21)c1ccccn1 (racemic) [dimetindene] | > 10 µM | > 10 µM | > 10 µM | > 10 µM | > 10 µM | 0 | 0 | 0 | 0 | 0 | 93.1 ± 6.5% | 98.2 ± 4.7% | 96.3 ± 4.6% | 102 ± 10% | 104.8 ± 0.92% | 97.2 ± 8% | 98.2 ± 1.2% | 100.2 ± 0.78% | 100% | 96.5 ± 8% | 104 ± 4.7% | 98 ± 4.8% | 106 ± 5.9% | 89.7 ± 3.2% | 103 ± 2.5% | 99.5 ± 0.57% | 104 ± 1.8% | 99.3 ± 7.8% | 100 ± 1.4% | 94.8 ± 2.6% | 98.2 ± 2% | 113 ± 4% | 103.2 ± 0.21% | 105 ± 3.2% | 96 ± 2%
7 | CC(C)NC[C@@H](O)COc1ccccc1-n1cccc1 (racemic) [isamoltane] | > 10 µM | > 10 µM | > 10 µM | > 10 µM | > 10 µM | 0 | 0 | 0 | 0 | 0 | 96.3% | 97.7% | 93.1% | 103% | 107% | 105% | 97.7% | 96.1% | 96.3% | 102% | 97.1% | 100% | 108% | 105% | 104% | 96.8% | 99% | 97.4% | 107% | 102% | 98.2% | 99.2% | 94.9% | 97.1% | 98.3%
8 | CC(C)(O)C(=O)Nc1ccc([N+](=O)[O-])c(C(F)(F)F)c1 [2-hydroxyflutamide] | > 10 µM | > 10 µM | > 10 µM | > 10 µM | > 10 µM | 0 | 0 | 0 | 0 | 0 | 97.3% | 90.4% | 90% | 96.5% | 87.9% | 100% | 102% | 102% | 93.9% | 97% | 97.6% | 99.3% | 92.6% | 98% | 98.1% | 99% | 105% | 103% | 97.1% | 94.6% | 100% | 97.2% | 97.8% | 101% | 107%
9 | N=C1N[C@H]2[C@H](CS[C@H]2CCCCC(=O)O)N1 [2-iminobiotin] | > 10 µM | > 10 µM | > 10 µM | > 10 µM | > 10 µM | 0 | 0 | 0 | 0 | 0 | 93.6% | 105% | 96.8% | 98.8% | 98% | 110% | 106% | 105% | 97.5% | 102% | 100% | 102% | 106% | 97.6% | 106% | 102% | 102% | 99.5% | 104% | 98.3% | 105% | 98.8% | 101% | 118% | 106%
10 | N[C@H](C(=O)O)c1ccc(O)c(C(=O)O)c1 [3-carboxy-4-hydroxyphenylglycine-(S)] | > 10 µM | > 10 µM | > 10 µM | > 10 µM | > 10 µM | 0 | 0 | 0 | 0 | 0 | 95.6 ± 1.8% | 101 ± 1.3% | 95.2 ± 2.6% | 93.4 ± 0.57% | 101 ± 4.5% | 104 ± 7.1% | 103.7 ± 0.35% | 99 ± 2.3% | 106 ± 3.2% | 101 ± 2.1% | 102.2 ± 0.28% | 97.5 ± 5.9% | 98.7 ± 0.28% | 100 ± 2.3% | 100 ± 1.3% | 101 ± 0.71% | 101 ± 1.9% | 103 ± 2.5% | 94.8 ± 4.5% | 102 ± 0.49% | 96.5 ± 5.7% | 89 ± 0.99% | 96 ± 4.8% | 94.2 ± 3% | 101 ± 3%
11 | Cn1cnc(N)c2ncnc1-2 [3-methyladenine] | > 10 µM | > 10 µM | > 10 µM | > 10 µM | > 10 µM | 0 | 0 | 0 | 0 | 0 | 99.3% | 94.8% | 108% | 102% | 100% | 95.1% | 103% | 102% | 96.6% | 96.5% | 103% | 102% | 89.6% | 101% | 90.5% | 103% | 97.1% | 98.3% | 97.9% | 99.8% | 104% | 101% | 95.2% | 106% | 106%
12 | C1CCC2(CC1)CCNCC2 [4,4-pentamethylenepiperidine] | > 10 µM | > 10 µM | > 10 µM | > 10 µM | > 10 µM | 0 | 0 | 0 | 0 | 0 | 99.9% | 93% | 97.4% | 91.2% | 102% | 102% | 101% | 100% | 104% | 98.7% | 104% | 90.7% | 96% | 102% | 96.7% | 97.2% | 95.3% | 95.2% | 94.9% | 91.7% | 99.2% | 96.3% | 109% | 95.1% | 101%
13 | O=c1c2ccccc2[se]n1-c1ccccc1 [Ebselen] | > 10 µM | > 10 µM | > 10 µM |  | > 10 µM | 0 | 0 | 0 | 1.1 | 1.7 | 102% | 89.2% | 104% | 91.6% | 92.2% | 97.6% | 100% | 105% | 92.8% | 93.7% | 113% | 98.2% | 103% | 100% | 106% | 103% | 95.8% | 105% | 98.9% | 74.5% | 104% | 91.8% | 107% | 83.1% | 87.7%
14 | Oc1c(Cl)cc(Cl)c(Cl)c1Cc1c(O)c(Cl)cc(Cl)c1Cl [hexachlorophene] | 2.29 µM | > 10 µM | 2.57 µM |  | > 10 µM | 5.8 | 0.5 | 5.1 | 1.9 | 0 | 95% | 97.1% | 92.3% | 91.6% | 20.9% | 102% | 102% | 100% | 99.9% | 82% | 98% | 98.3% | 94% | 94.4% | 23.8% | 97.8% | 96.8% | 92.9% | 96.1% | 70.9% | 107% | 103% | 107% | 99.4% | 94.2%
15 | CCc1c(C(=O)C(N)=O)c2c(OCC(=O)O)cccc2n1Cc1ccccc1 [varespladib] | > 10 µM | > 10 µM | > 10 µM |  | > 10 µM | 0 | 0 | 0 |  | 0 | 106% | 90.1% | 94.4% | 93% | 106% | 104% | 102% | 107% | 103% | 99.5% | 93.3% | 105% | 96.2% | 101% | 97.7% |  |  |  |  |  | 104% | 99.2% | 91.2% | 110% | 101%
